Columns and labels:
primary human monocytes = experiment: In vitro model of trained immunity in primary human monocytes; type: cell-based
Description: In vitro model of trained immunity in primary human monocytes: To induce trained immunity in primary human monocytes, a previously optimized and published method was used (Dominguez-Andres, J. et al. In vitro induction of trained immunity in adherent human monocytes. STAR Protoc 2, 100365, doi:10.1016/j.xpro.2021.100365 (2021); van Lier, D., Geven, C., Leijte, G. P. & Pickkers, P. Experimental human endotoxemia as a model of systemic inflammation. Biochimie 159, 99-106, doi:10.1016/j.biochi.2018.06.014 (2019)). Briefly: monocytes were adhered to a flat-bottom cell culture plate for 1 hour and washed with warm PBS to remove any non-adherent cells and cell debris. Then, they were stimulated (“trained”) for 24 hours with one of the stimuli detailed in Table 1, or medium only (“untrained” control).
For pharmacological inhibition experiments, the monocytes were pre-incubated for 1 hour with one of the inhibitors described in Table 2 before addition of the training stimulus.
Following the initial 24-hour stimulation, the cells were washed with warm PBS and warm cell culture medium was added. The monocytes were then allowed to rest and differentiate into macrophages for 5 days. On day 6, the induction of trained immunity was assessed. To this end, the cells were typically re-stimulated with LPS for an additional 24 hours to elicit cytokine production. The supernatants were collected and stored at −20° C. until further analysis, e.g. with ELISA for IL6 and TNF.
Cytokine and lactate measurements: TNF, IL6, and IL1Ra were measured in cell culture supernatants using duoset ELISA kits (R&D systems), according to the manufacturer's instructions. For lactate measurements, a fluorometric assay was used. 30 μl sample, medium control, or known standard was added to a black 96-well plate. Then, 30 μl reaction mix (PBS pH 7.4, horse radish peroxidase (0.2 U/ml), lactate oxidase (2 U/ml), Amplex red (100 μM; Fisher scientific)) was added and the reaction was incubated for 20 minutes in the dark at RT. Immediately thereafter, fluorescence was measured at 530/25 nm and 590/35 nm. Gen5 software (v3.03, BioTek) was used in conjunction with Microsoft Excel to calculate cytokine and lactate concentrations in the original samples.

Macrophages = experiment: Seahorse metabolic analyses of IL4-trained cells; type: cell-based, human; details: IL4 training on day 0, measured on day 6
Experimental: Seahorse metabolic analyses: Macrophages were harvested as described above. The cells were resuspended in RPMI+++ and seeded into overnight-calibrated cartridges at 10^5 cells per well. After adhering for 1 hour, the medium was changed to assay medium (Agilent; see below) and the cells were incubated for 1 hour at 37° C. in ambient C02 levels. Oxygen consumption rates (OCR) and extracellular acidification rates (ECAR) were measured as proxies for glycolytic and […] metabolism, using a Seahorse XF Glycolysis Stress Test kit or a Seahorse XF Cell Mito Stress Test kit (both Agilent; measurements performed according to manufacturer's instructions).

TNF = experiment: ChIP-qPCR of H3K9me3 at TNF; type: cell-based, human; details: IL4-induced trained immunity
Experimental: Chromatin immunoprecipitation: Macrophages were harvested as described above and resuspended in RPMI+++. The cells were fixed for 10 minutes in 1% methanol-free formaldehyde. The reaction was then quenched for 3 minutes by adding 125 mM glycine. The fixed cells were washed three times with ice-cold PBS and lysed at approximately 15*10^6 cells/ml in lysis buffer (20 mM HEPES pH 7.6, 1% SDS, 1× protease inhibitor cocktail (PIC; Roche)), sonicated (Bioruptor Pico, Diagenode), and centrifuged (10 minutes, 13000 rpm, RT).
Aliquots of chromatin were de-crosslinked in 0.5×TBE buffer (supplemented with 0.5 mg/ml proteinase K (Qiagen)) for 1 hour at 65° C. and run on a 1% agarose gel to confirm target fragment size of 200-800 bp.
The remaining chromatin was divided into ChIP and input samples. ChIP samples were diluted 10× in dilution buffer (16.7 mM Tris pH 8.0, 1.0% Triton, 1.2 mM EDTA, 167 mM NaCl, 1×PIC in MilliQ) and 1 μg of ChIP-grade antibody (Diagenode) was added. The samples were rotated overnight at 4° C.
Magnetic protein A/G beads (Dynabeads) were washed 2 times in dilution buffer supplemented with 0.15% SDS and 0.1% BSA. The washed beads were added to the ChIP samples and rotated at 4° C. for 1 hour. […]

IL4: recombinant human interleukin 4
induction of trained immunity (TNF and IL6 after LPS re-stimulation on day 6) (primary human monocytes; 24 hours training, 5-day rest, LPS 24 hours): induced a trained immunity phenotype on day 6 | lactate at baseline of trained cells (primary human monocytes; IL4-trained cells, day 6, data not shown): produced more lactate at baseline | effect on β-glucan-induced trained immunity (primary human monocytes; IL4 added in the first 24 hours with β-glucan): did not inhibit the training effect | FCCP-triggered maximum respiration rate (Macrophages): significantly augmented | basal glycolysis (Macrophages): trend towards higher basal glycolysis | baseline respiration rate (Macrophages): significantly augmented | oligomycin-triggered maximum glycolytic capacity (Macrophages): significant increase | H3K9me3 at TNF (AUC analysis of primer pairs) (TNF): a decrease of H3K9me3

Reference: patent US20240391978A1, “APOLIPOPROTEIN FUSION PROTEINS FOR CELL-SPECIFIC IMMUNE REGULATION” (BIO-TRIP B.V., priority 2021, published 2024)
